Experimental data published in patent US20200385370A1 (SYNBLIA THERAPEUTICS, INC., priority 2017, published 2020).

These compounds were tested against T1, GST tagged IRAK4 (Homo sapiens, UniProt Q9NWZ3) (assay: IRAK4 kinase activity assay, IMAP fluorescence polarization, phosphorylation of fluorescently labeled peptide). Conditions: 0.5 nM GST tagged IRAK4, 100 nM peptide substrate, 100 μM ATP, 30 minutes at 25° C.
T1 construct: purchased SignalChem
T1 sequence (Q9NWZ3 1-460): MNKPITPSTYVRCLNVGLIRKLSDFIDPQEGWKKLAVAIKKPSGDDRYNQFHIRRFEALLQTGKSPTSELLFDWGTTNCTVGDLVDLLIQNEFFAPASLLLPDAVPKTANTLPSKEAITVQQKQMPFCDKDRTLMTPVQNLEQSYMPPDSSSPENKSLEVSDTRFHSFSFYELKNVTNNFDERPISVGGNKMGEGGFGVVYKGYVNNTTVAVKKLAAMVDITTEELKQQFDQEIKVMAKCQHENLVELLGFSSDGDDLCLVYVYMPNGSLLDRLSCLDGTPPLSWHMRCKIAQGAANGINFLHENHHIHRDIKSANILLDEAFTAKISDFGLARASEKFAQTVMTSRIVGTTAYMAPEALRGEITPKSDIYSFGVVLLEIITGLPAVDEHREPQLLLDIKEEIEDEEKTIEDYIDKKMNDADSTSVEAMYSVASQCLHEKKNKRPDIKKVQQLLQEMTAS
Assay type: biochemical
Description: The kinase activity of IRAK4 is measured by its ability to phosphorylate a fluorescently labeled synthetic peptide in the presence of ATP. The assay format is based on the Immobilized Metal Ion Affinity-Based Fluorescence Polarization (IMAP) platform developed by Molecular Devices. Briefly, reaction mixture (20 μL) contains the assay buffer (20 mM Tris.Cl, pH 7.2, 1 mM MgCl2, 1 mM DTT, and 0.02% Tween 20), 0.5 nM GST tagged IRAK4 (SignalChem), 100 nM peptide substrate and 100 μM ATP. The amino acid sequence of the peptide substrate is 5FAM-RKRQGSVRRRVH-COOH (Cat #: RP7030, Molecular Devices). The reaction is initiated by adding substrates ATP and RP7030, and terminated by adding Stop solution (60 μL) after 30 minutes of incubation at 25° C. The Stop solution is prepared with IMAP Progressive Reagent A/B and Binding reagent according to vender's instruction. The extent of phosphorylation of the peptide is measured by changes in Fluorescence Polarization (FP) resulting from binding of phosphate group on the peptide with immobilized metal coordination complexes on the nanoparticles included in the Stop solution. Errors in the calculated IRAK4 IC50 values range from 4-12% from duplicate experiments.

SMILES | IC50 [µM]
COc1cc2c(OC[C@@H]3CCC(=O)N3)nccc2cc1C(N)=S [Compound XI, (S)-7-methoxy-1-((5-oxopyrrolidin-2-yl)methoxy)isoquinoline-6-carbothioamide] | 0.5 to 3
CC[C@@H]1CC(=O)N2COCCOc3cc4c(nccc4cc3C(N)=O)OC[C@H]12 [XIX, (4^2S, 4^3R)-4^3-ethyl-4^5-oxo-2,6,9-trioxa-1 (1,7)-isoquinolina-4 (2,1)-pyrrolidinacyclononaphane-1^6-carboxamide] | 0.5 to 3
COc1cc2c(OCC3CCC(=O)N3)nccc2cc1OC(N)=O (centres unmarked) [II, 7-methoxy-1-((5-oxopyrrolidin-2-yl)methoxy)isoquinolin-6-yl carbamate] | 3 to 10
CC#Cc1cnc(N2CCC[C@H](N)C2)c2cc(OC)c(C(N)=O)cc12 [XXXIV, (S)-1-(3-aminopiperidin-1-yl)-7-methoxy-4-(prop-1-yn-1-yl)soquinoline-6-carboxamide] | < 0.5
COc1cc2c(S[C@@H]3CCCN(C(=O)CC#N)C3)nccc2cc1C(N)=O [Compound XXXI, (R)-1-((1-(2-cyanoacetyl)piperidin-3-yl)thio)-7-methoxyisoquinoline-6-carboxamide] | 3 to 10
COc1cc2c(N3CCC[C@H](N)C3)ncc(C#N)c2cc1C(N)=O [XXXVI, (S)-1-(3-aminopiperidin-1-yl)-4-cyano-7-methoxyisoquinoline-6-carboxamide] | 0.5 to 3
CCC[C@@H]1CC(=O)N2COCCOc3cc4c(nccc4cc3C(N)=O)OC[C@H]12 [Compound XXIV, (4^2S,4^3R)-4^5-oxo-4^3-propyl-2,6,9-trioxa-1 (1,7)-isoquinolina-4 (2,1)-pyrrolidinacyclononaphane-1^6-carboxamide] | 0.5 to 3
CC[C@@H]1CC(=O)N[C@@H]1CNc1nccc2cc(C(N)=O)c(OC)cc12 [Compound XXVIII, 1-((((2S, 3R)-3-ethyl-5-oxopyrrolidin-2-yl)methyl)amino)-7-methoxyisoquinoline-6-carboxamide] | < 0.5
NC(=O)c1cc2ccnc3c2cc1OCCOCN1C(=O)CC[C@H]1CO3 [XVIII, (S)-4^5-oxo-2,6,9-trioxa-1(1,7)-isoquinolina-4(2,1)-pyrrolidinacyclononaphane-1^6-carboxamide] | < 0.5
CC#Cc1cnc(NC[C@@H]2CCC(=O)N2)c2cc(OC)c(C(N)=O)cc12 [Compound XXII, (S)-7-methoxy-1-(((5-oxopyrrolidin-2-yl)methyl)amino)-4-(prop-1-yn-1-yl) isoquinoline-6-carboxamide] | < 0.5
COc1cc2c(N3CCC(N)CC3)nccc2cc1C(N)=O [Compound XXVII, 1-(4-aminopiperidin-1-yl)-7-methoxyisoquinoline-6-carboxamide] | 0.5 to 3
COc1cc2c(OC[C@@H]3CCC(=O)N3)nccc2cc1C(=O)S [XIII, (S)-7-methoxy-1-((5-oxopyrrolidin-2-yl)methoxy) isoquinoline-6-carbothioic S-acid] | 0.5 to 3
COc1cc2c(N[C@@H]3CCNC3)nccc2cc1C(N)=O [Compound XXXII, (R)-7-methoxy-1-(pyrrolidin-3-ylamino)isoquinoline-6-carboxamide] | 0.5 to 3
COc1cc2c(N3CCC[C@H](N)C3)nccc2cc1C(N)=O [Compound XX, (S)-1-(3-aminopiperidin-1-yl)-7-methoxyisoquinoline-6-carboxamide] | < 0.5
NC(=O)c1cc2ccnc3c2cc1OCCOCN1C(=O)OCC1CO3 (centres unmarked) [XVII, 1^2-oxo-3,5,8-trioxa-1(4,3)-oxazolidina-4(1,7)-isoquinolinacyclononaphane-4^6-carboxamide] | 0.5 to 3
COc1cc2c(N3CCC[C@H](N)C3)ncc(Br)c2cc1C(N)=O [XXXV, (S)-1-(3-aminopiperidin-1-yl)-4-bromo-7-methoxyisoquinoline-6-carboxamide] | 0.5 to 3
COc1cc2c(ccn2[C@H]2CC[C@H](N)C2)cc1C(N)=O [XXIII, 1-((1S, 3S) 3-aminocyclopentyl)-6-methoxy-1H-indole-5-carboxamide] | 0.5 to 3
COc1cc2c(N[C@@H]3CCCN(C(=O)CC#N)C3)nccc2cc1C(N)=O [Compound XXX, (R)-1-((1-(2-cyanoacetyl)piperidin-3-yl)amino)-7-methoxyisoquinoline-6-carboxamide] | 3 to 10
COc1cc2c(N[C@@H]3CCCNC3)nccc2cc1C(N)=O [Compound XXIX, (R)-7-methoxy-1-(piperidin-3-ylamino) isoquinoline-6-carboxamide] | 0.5 to 3
NC(=O)c1cc2ccnc3c2cc1OCCOCC(=O)N1CC(CO3)C1 [Compound XIV, 5-oxo-2,7,10-trioxa-1(1,7)-isoquinolina-4(3,1)-azetidinacyclodecaphane-16-carboxamide] | 0.5 to 3
COc1cc2c(N3CCC[C@H](O)C3)nccc2cc1C(N)=O [Compound XXI, (S)-1-(3-hydroxypiperidin-1-yl)-7-methoxyisoquinoline-6-carboxamide] | 0.5 to 3
C[C@@H]1CC(=O)N2COCCOc3cc4c(nccc4cc3C(N)=O)OC[C@H]12 [Compound XXV, (4^2S, 4^3R)-4^3-methyl-4^5-oxo-2,6,9-trioxa-1 (1,7)-isoquinolina-4 (2,1)-pyrrolidinacyclononaphane-1^6-carboxamide] | < 0.5
COc1cc2c(OCC3CCC(=O)N3)nccc2cc1C(=O)NO (centres unmarked) [IV, N-hydroxy-7-methoxy-1-((5-oxopyrrolidin-2-yl)methoxy) isoquinoline-6-carboxamide] | 3 to 10
COc1cc2c(N3CCC(C)(CN)CC3)nccc2cc1C(N)=O [Compound XXVI, 1-(4-(aminomethyl)-4-methylpiperidin-1-yl)-7-methoxyisoquinoline-6-carboxamide] | 0.5 to 3
NC(=O)c1cc2ccnc3c2cc1OCCOCCN1C(=O)CCC1CO3 (centres unmarked) [Compound IX, 4^5-oxo-2,7,10-trioxa-1(1,7)-isoquinolina-4(2,1)-pyrrolidinacyclodecaphane-1^6-carboxamide] | 3 to 10
COc1cc2c(NCC3CCC(=O)N3)nccc2cc1C(N)=O (centres unmarked) [VII, 7-methoxy-1-(((5-oxopyrrolidin-2-yl)methyl)amino) isoquinoline-6-carboxamide] | 0.5 to 3
